A word on the IC50: it is the midpoint of a concentration-inhibition curve. Low readings indicate higher potency, high ones lower potency.

The values that follow come from patent US20150011528A1, “PHENYLIMIDE-CONTAINING BENZOTHIAZOLE DERIVATIVE OF ITS SALT AND PHARMACEUTICAL COMPOSITION COMPRISING THE SAME” (YUHAN CORPORATION, priority 2011, published 2015).

The structures appear in SMILES notation.

T2 sequence (Q15046 whole entry): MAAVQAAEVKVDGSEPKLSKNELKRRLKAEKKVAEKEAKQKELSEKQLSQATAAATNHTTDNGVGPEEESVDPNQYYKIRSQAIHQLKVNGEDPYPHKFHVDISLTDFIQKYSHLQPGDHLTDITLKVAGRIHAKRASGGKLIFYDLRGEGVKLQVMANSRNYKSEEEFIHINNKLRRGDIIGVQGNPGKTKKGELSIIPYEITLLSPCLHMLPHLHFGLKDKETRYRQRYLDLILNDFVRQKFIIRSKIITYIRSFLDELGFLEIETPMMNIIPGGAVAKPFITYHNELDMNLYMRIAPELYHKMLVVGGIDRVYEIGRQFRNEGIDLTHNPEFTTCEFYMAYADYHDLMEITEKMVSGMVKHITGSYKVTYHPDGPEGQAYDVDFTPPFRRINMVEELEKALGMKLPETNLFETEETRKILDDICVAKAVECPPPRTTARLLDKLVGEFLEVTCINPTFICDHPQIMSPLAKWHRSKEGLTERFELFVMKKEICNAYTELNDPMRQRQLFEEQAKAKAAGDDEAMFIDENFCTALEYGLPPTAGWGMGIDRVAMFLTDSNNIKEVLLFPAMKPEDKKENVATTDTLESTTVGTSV

For one assay, the target named is T1, interaction between the KRS protein and the laminin receptor (LR) (Homo sapiens, UniProt Q15046).
T1 construct: expressed in transfected cells; host or cells: yeast EGY/SH cells
T1 sequence (Q15046 whole entry): as above
Briefly: Yeast Two Hybrid inhibition of the interaction between the KRS protein and the laminin receptor (LR). It is filed as cell-based. As to conditions: 1 μL of 20 mM DMSO solution per 200 μL culture; 30° C., 6 days; absorbance 540 nm; non-treated control = 100%. The method, then: The inhibitory activity against the interaction between the KRS protein and the laminin receptor (LR) was evaluated according to the Yeast Two Hybrid method described in WO2011/056021. According to the disclosures of WO2011/056021, we prepared a vector obtained by cloning the KRS gene in the LexA vector (Clontech) and a vector obtained by cloning the LR gene in the B42 vector (Clontech). The yeast cells, i.e., EGY/SH cells were co-transformed with the LexA-KRS vector and the B42-LR vector. The co-transformation was carried out using the Yeastmaker yeast transformation system2 kit (Clontech), according to the manufacturer's instruction. […] The cultured yeast cells were diluted with the said galactose medium, until the absorbance at 540 nm attains to about 0.15 to 0.2. The diluted culture (200 μL), containing the yeast cells, was added to each well of a 96-well plate. Each test compound was dissolved in dimethyl sulfoxide at a concentration of 20 mM and then the resulting solutions (1 μL) were added to each well. The plate was cultured at 30° C. for 6 days and then the absorbance of the each well was measured at 540 nm.
(§1) And also, specificity of the inhibitory activity was evaluated, using the yeast cells cotransformed with the LexA-KRS vector and the B42-AIMP2 vector; and the yeast cells co-transformed with the LexA-KRS vector and the B42-AIMP3 vector, which were respectively prepared according to WO2011/056021. The co-transformation was carried out using the Yeastmaker yeast transformation system2 kit (Clontech), according to the manufacturer's instruction. […] The cultured yeast cells were diluted with the said galactose medium, until the absorbance at 540 nm attains to about 0.15 to 0.2. The diluted culture (200 μL), containing the yeast cells, was added to each well of a 96-well plate. Each test compound was dissolved in dimethyl sulfoxide at a concentration of 20 mM and then the resulting solutions (1 μL) were added to each well. The plate was cultured at 30° C. for 6 days and then the absorbance of each well was measured at 540 nm. The respective yeast cell proliferation rates (%) in the treated samples were calculated in comparison with those of the non-treated control (100%) and the results thereof are shown in Table 1 below.
When KRS is bound to LR, the trans-activation domain is come close to the DNA-binding domain and the genes for synthesizing essential amino acids are expressed, which leads to normal growth of the transformed yeasts, thereby increasing the absorbance.
`CCC(C(=O)O)n1c(=NC(=O)c2ccc(OC)cc2)sc2c(F)c(F)ccc21` (stereo not shown) [Example 585]: the “Yeast cell proliferation rates KRS-LR (%)” value is 46.3%.

Take `CCC(C(=O)O)n1c(=NC(=O)c2cccc(F)c2)sc2c(Cl)cccc21` (stereo not shown) [Example 543, 2-(7-chloro-2-((3-fluorobenzoyl)imino)benzo[d]thiazol-3(2H)-yl)butanoic acid]: the “Yeast cell proliferation rates KRS-LR (%)” value is on record as 36.1%.

Another assay concerns A549 cells. Briefly: Cell Migration Assay (transwell, laminin). Format: cell-based. As to conditions: Homo sapiens, laminin 10 μg/mL in lower well, test compounds 0.39˜100 μM, 6 hours at 37° C. The protocol: Cell migration was measured with a 24-well transwell having a polycarbonate membrane (8.0 μm pore size, Costar) at the bottom of the upper chamber. Each lower well was treated with laminin (10 μg/mL) and test compounds (0.39˜100 μM) along with a serum-free RPMI1640 medium. A549 cells (Korean Cell Line Bank) were suspended in a serum-free RPMI1640 medium at a concentration of 1×10^6 cells/mL and then the test compounds were added thereto at the indicated concentrations. Each resulting solution (100 μL) was added to the upper chamber. The cells were cultured at 37° C. for 6 hours in a CO2 incubator. The upper chamber was taken out and then the cells were fixed with PBS containing 70% methyl alcohol for 10 minutes, followed by washing with PBS twice. The cells were stained with hematoxylin (Sigma) for 10 minutes and then washed with distilled water. The non-migrated cells were removed from the upper portion of the polycarbonate membrane with a cotton swab. The membranes were excised and separated from the chamber, and then mounted to a slide using a gel mount reagent (Biomeda, USA). The migrated cells (attached to the lower face of the membrane) were counted at three randomly selected sites under a microscope (×20). The cell counting was performed with the Image J program. From the counted cell numbers, each IC50 value was calculated by non-linear regression curve fit using the “GraphPad Prism” program.
The cells are pulled by laminin residing in the lower chamber and then passed through the polycarbonate membrane, so as to attach to the lower face of the membrane.
Turning to `CCC(C(=O)O)n1c(=NC(=O)c2cccc(Cl)c2)sc2cc(C(F)(F)F)ccc21` (stereo not shown) [Example 173, 2-(2-((3-chlorobenzoyl)imino)-6-(trifluoromethyl)benzo[d]thiazol-3(2H)-yl)butanoic acid], the IC50 worked out at 16.5 µM.

`CCC(C(=O)O)n1c(=NC(=O)c2cc(Cl)cc(Cl)c2)sc2cc(F)c(F)cc21` (stereo not shown) [Example 468, 2-(2-((3,5-dichlorobenzoyl)imino)-5,6-difluorobenzo[d]thiazol-3(2H)-yl)butanoic acid]: the IC50 is 41 µM.

Take `CCC(C(=O)O)n1c(=NC(=O)c2ccc(OC)cc2)sc2ccccc21` (stereo not shown) [Example 60, 2-[2-(4-methoxybenzoylimino)benzo[d]thiazol-3(2H)-yl]butanoic acid]: the IC50 came out at 26.9 µM.

In turn, `CCC(C(=O)O)n1c(=NC(=O)c2ccc(C)cc2)sc2ccc(Cl)cc21` (stereo not shown) [Example 105, 2-[5-chloro-2-(4-methylbenzoylimino)benzo[d]thiazol-3(2H)-yl]butanoic acid] yielded an IC50 of 19 µM.

Turning to `Cc1ccc(C(=O)N=c2sc3c(C)cccc3n2C(C)C(=O)O)cc1` (stereo not shown) [Example 103, 2-[7-methyl-2-(4-methylbenzoylimino)benzo[d]thiazol-3(2H)-yl]propionic acid], half-maximal inhibition (IC50) was put at 28 µM.

Consider `CC(C(=O)O)n1c(=NC(=O)c2ccc(F)c(Cl)c2)sc2cc(F)c(F)cc21` (stereo not shown) [Example 466, 2-(2-((3-chloro-4-fluorobenzoyl)imino)-5,6-difluorobenzo[d]thiazol-3(2H)-yl)propionic acid], for which half-maximal inhibition (IC50) required 49 µM.

In turn, `CCC(C(=O)O)n1c(=NC(=O)c2ccc(C)cc2)sc2cc(C)c(F)cc21` (stereo not shown) [Example 16, 2-{5-fluoro-6-methyl-2-[(4-methylbenzoyl)imino]benzo[d]thiazol-3(2H)-yl}butanoic acid] showed an IC50 of 11.8 µM.

Compound `CC(C(=O)O)n1c2c(sc1=NC(=O)c1cccc(C(F)(F)F)c1)CCCC2` (stereo not shown) [Example 295, 2-(2-(3-(trifluoromethyl)benzoylimino)-4,5,6,7-tetrahydrobenzo[d]thiazol-3(2H)-yl)propionic acid] returned an IC50 of 60 µM.

`COc1ccc2c(sc(=NC(=O)c3cccc(Cl)c3)n2CC(=O)O)c1F` [Example 396, 2-(2-((3-chlorobenzoyl)imino)-7-fluoro-6-methoxybenzo[d]thiazol-3(2H)-yl)acetic acid]: it took 43 µM to reach half-maximal inhibition (IC50).

`Cc1ccc(C(=O)N=c2sc3c(F)cc(F)cc3n2C(C)C(=O)O)cc1` (stereo not shown) [Example 455, 2-(5,7-difluoro-2-((4-methylbenzoyl)imino)benzo[d]thiazol-3(2H)-yl)propionic acid] registered an IC50 of 80 µM.

The compound `CC(C(=O)O)n1c(=NC(=O)c2ccc(C(F)(F)F)cc2)sc2ccccc21` (stereo not shown) [Example 186, 2-(2-(4-(trifluoromethyl)benzoylimino)benzo[d]thiazol-3(2H)-yl)propionic acid] came in with an IC50 of 101 µM.

In the case of `Cc1cccc2c1sc(=NC(=O)c1cccc(C(F)(F)F)c1)n2C(C)C(=O)O` (stereo not shown) [Example 314, 2-(7-methyl-2-(3-(trifluoromethyl)benzoylimino)benzo[d]thiazol-3(2H)-yl)propionic acid], half-maximal inhibition (IC50) required 46 µM.

With `CCC(C(=O)O)n1c(=NC(=O)c2ccc(C)cc2)sc2ccc(F)cc21` (stereo not shown) [Example 90, 2-[5-fluoro-2-(4-methylbenzoylimino)benzo[d]thiazol-3(2H)-yl]butanoic acid], the IC50 came to 31.6 µM.

Consider `CC(C(=O)O)n1c(=NC(=O)c2cccc(Cl)c2)sc2c(F)cccc21` (stereo not shown) [Example 373, 2-(2-((3-chlorobenzoyl)imino)-7-fluorobenzo[d]thiazol-3(2H)-yl)propionic acid], for which the half-maximal inhibitory concentration (IC50) was determined as 92.4 µM.

`CCOc1ccc2c(sc(=NC(=O)c3cccc(Cl)c3)n2C(CC)C(=O)O)c1F` (stereo not shown) [Example 427, 2-(2-((3-chlorobenzoyl)imino)-6-ethoxy-7-fluorobenzo[d]thiazol-3(2H)-yl)butanoic acid] had a half-maximal inhibitory concentration (IC50) of 18 µM.

On to `CC(C(=O)O)n1c(=NC(=O)c2cccc(C(F)(F)F)c2)sc2c(F)c(F)c(F)cc21` (stereo not shown) [Example 380, 2-(5,6,7-trifluoro-2-((3-(trifluoromethyl)benzoyl)imino)benzo[d]thiazol-3(2H)-yl)propionic acid], for which the IC50 came to 36.2 µM.

Turning to `CCC(C(=O)O)n1c(=NC(=O)c2ccc(C)cc2)sc2cc(OC(F)(F)F)ccc21` (stereo not shown) [Example 14, 2-{2-[(4-methylbenzoyl)imino]-6-(trifluoromethoxy)benzo[d]thiazol-3(2H)-yl]butanoic acid], the half-maximal inhibitory concentration (IC50) was 21.5 µM.

In turn, `COc1ccc2c(c1)sc(=NC(=O)c1cccc(C(F)(F)F)c1)n2C(C)C(=O)O` (stereo not shown) [Example 189, 2-(6-methoxy-2-((3-(trifluoromethyl)benzoyl)imino)benzo[d]thiazol-3(2H)-yl)propionic acid] returned an IC50 of 87 µM.

Regarding `CCC(C(=O)O)n1c(=NC(=O)c2ccc(C)cc2)sc2ccc(C)cc21` (stereo not shown) [Example 100, 2-[5-methyl-2-(4-methylbenzoylimino)benzo[d]thiazol-3(2H)-yl]butanoic acid], 43 µM corresponded to half-maximal inhibition (IC50).

Consider `CCC(C(=O)O)n1c(=NC(=O)c2cccc(Cl)c2)sc2c(F)cc(F)cc21` (stereo not shown) [Example 462, 2-(2-((3-chlorobenzoyl)imino)-5,7-difluorobenzo[d]thiazol-3(2H)-yl)butanoic acid], for which the IC50 was determined as 43 µM.

The compound `CC(C(=O)O)n1c(=NC(=O)c2cccc(C(F)(F)F)c2)sc2c(F)cccc21` (stereo not shown) [Example 346, 2-(7-fluoro-2-((3-(trifluoromethyl)benzoyl)imino)benzo[d]thiazol-3(2H)-yl)propionic acid] returned an IC50 of 124 µM.

`O=C(O)Cn1c(=NC(=O)c2cccc(Cl)c2)sc2c(F)cccc21` [Example 347, 2-(2-((3-chlorobenzoyl)imino)-7-fluorobenzo[d]thiazol-3(2H)-yl)acetic acid]: half-maximal inhibition (IC50) was put at 109 µM.

With `CC(C(=O)O)n1c(=NC(=O)c2cccc(Cl)c2)sc2c(C(F)(F)F)cccc21` (stereo not shown) [Example 270, 2-(2-(3-chlorobenzoylimino)-7-(trifluoromethyl)benzo[d]thiazol-3(2H)-yl)propionic acid], the IC50 was 1 µM.

The same assay, now with this note: laminin 10 μg/mL in lower well, test compounds 0.39˜100 μM, 6 hours at 37° C.
`CCC(C(=O)O)n1c(=NC(=O)c2ccc(F)c(C(F)(F)F)c2)sc2cc(F)c(F)cc21` (stereo not shown) [Example 471] yielded an IC50 of 32 µM.

The compound `CCC(C(=O)O)n1c(=NC(=O)c2cc(F)cc(C(F)(F)F)c2)sc2cc(F)c(F)cc21` (stereo not shown) [Example 469] had an IC50 of 66 µM.

A further assay concerns the target T2, binding between KRS and AIMP3 (Homo sapiens, UniProt Q15046).
T2 construct: expressed in transfected cells; host or cells: yeast cells (co-transformed)
Nature of the assay: Yeast Two Hybrid specificity test, LexA-KRS / B42-AIMP3 co-transformed yeast cells. It is filed as cell-based. As to conditions: 1 μL of 20 mM DMSO solution per 200 μL culture; 30° C., 6 days; absorbance 540 nm; non-treated control = 100%. The protocol:
as §1
As for `CCC(C(=O)O)n1c(=NC(=O)c2ccc(OC)cc2)sc2c(F)c(F)ccc21` (stereo not shown) [Example 585], the “Yeast cell proliferation rates KRS-AIMP3 (%)” value amounted to 84.0%.

Regarding `CCC(C(=O)O)n1c(=NC(=O)c2cccc(F)c2)sc2c(Cl)cccc21` (stereo not shown) [Example 543, 2-(7-chloro-2-((3-fluorobenzoyl)imino)benzo[d]thiazol-3(2H)-yl)butanoic acid], the “Yeast cell proliferation rates KRS-AIMP3 (%)” value is 90.3%.

In a further assay the target is T3, binding between KRS and AIMP2 (Homo sapiens, UniProt Q15046).
T3 construct: expressed in transfected cells; host or cells: yeast cells (co-transformed)
T3 sequence (Q15046 whole entry): as above
Nature of the assay: Yeast Two Hybrid specificity test, LexA-KRS / B42-AIMP2 co-transformed yeast cells. Format: cell-based. As to conditions: 1 μL of 20 mM DMSO solution per 200 μL culture; 30° C., 6 days; absorbance 540 nm; non-treated control = 100%. The protocol: as §1
In the case of `CCC(C(=O)O)n1c(=NC(=O)c2ccc(OC)cc2)sc2c(F)c(F)ccc21` (stereo not shown) [Example 585], the “Yeast cell proliferation rates KRS-AIMP2 (%)” value turned out to be 95.8%.

Take `CCC(C(=O)O)n1c(=NC(=O)c2cccc(F)c2)sc2c(Cl)cccc21` (stereo not shown) [Example 543, 2-(7-chloro-2-((3-fluorobenzoyl)imino)benzo[d]thiazol-3(2H)-yl)butanoic acid]: the “Yeast cell proliferation rates KRS-AIMP2 (%)” value came to 97.1%.
